This is an account of results in patent publication US20240270701A1, “BETA ADRENERGIC AGONIST AND METHODS OF USING THE SAME” (Curasen Therapeutics, Inc., priority 2021, published 2024).

In experiment [1] the target is T1, B1-AR (Homo sapiens, UniProt P08588).
T1 construct: expressed in transfected cells; host or cells: CHO-K1
As to the kind of experiment: cAMP Gs dynamic HTRF assay, cells expressing beta-adrenergic receptor (CHO-K1), B1-AR. The experiment is classed as cell-based. The note with it: for EC50: cAMP HTRF, read-out: pEC50 [B1-AR] (converted); for Emax: relative to full agonist isoproterenol, read-out: Emax (% iso) (%) [B1-AR]. For orientation: TR-FRET usually uses a lanthanide donor and a delayed reading to cut background.

The target in experiment [2] is T2, B2-AR (Homo sapiens, UniProt P07550).
T2 construct: expressed in transfected cells; host or cells: CHO-K1
As to the kind of experiment: cAMP Gs dynamic HTRF assay, cells expressing beta-adrenergic receptor (CHO-K1), B2-AR. The experiment is classed as cell-based. As to conditions: for Emax: relative to full agonist isoproterenol, read-out: Emax (% iso) (%) [B2-AR]; for EC50: cAMP HTRF, read-out: pEC50 [B2-AR] (converted).

Molecules are shown by their SMILES. Read-outs that look alike come from different tables or passages of the source.

A word on the Emax: it is the size of the effect at its maximum, as opposed to the concentration needed.

T1 sequence (P08588 whole entry, species assumed): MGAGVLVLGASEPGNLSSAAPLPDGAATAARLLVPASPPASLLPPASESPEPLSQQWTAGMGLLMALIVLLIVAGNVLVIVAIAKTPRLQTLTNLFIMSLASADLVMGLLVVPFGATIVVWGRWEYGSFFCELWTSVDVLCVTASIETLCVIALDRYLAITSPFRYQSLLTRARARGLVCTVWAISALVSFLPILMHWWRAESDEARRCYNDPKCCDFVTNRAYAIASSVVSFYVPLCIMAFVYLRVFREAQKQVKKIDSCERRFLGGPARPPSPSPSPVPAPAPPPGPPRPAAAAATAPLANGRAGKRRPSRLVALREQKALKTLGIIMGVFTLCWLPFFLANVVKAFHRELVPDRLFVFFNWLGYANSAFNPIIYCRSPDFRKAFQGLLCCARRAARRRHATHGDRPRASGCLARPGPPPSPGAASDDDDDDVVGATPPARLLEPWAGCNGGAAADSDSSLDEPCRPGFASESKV
T2 sequence (P07550 whole entry, species assumed): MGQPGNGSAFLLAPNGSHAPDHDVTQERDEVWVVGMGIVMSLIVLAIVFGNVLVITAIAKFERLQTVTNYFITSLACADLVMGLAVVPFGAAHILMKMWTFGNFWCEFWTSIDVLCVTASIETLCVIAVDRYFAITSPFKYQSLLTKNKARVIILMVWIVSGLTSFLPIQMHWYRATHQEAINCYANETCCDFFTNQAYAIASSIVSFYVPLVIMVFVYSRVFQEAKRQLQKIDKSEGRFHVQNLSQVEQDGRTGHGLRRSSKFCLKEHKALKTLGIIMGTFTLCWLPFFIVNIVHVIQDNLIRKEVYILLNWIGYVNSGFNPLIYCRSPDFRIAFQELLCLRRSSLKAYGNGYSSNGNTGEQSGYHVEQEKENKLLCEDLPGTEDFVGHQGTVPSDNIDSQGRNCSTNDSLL

Take `CC(C)NC[C@H](O)c1ccc(Cl)c2[nH]ncc12` [I-122]: the EC50 in experiment [1] and in experiment [2] (CHO-K1 cells) was under 10 nM throughout. For the same molecule, the Emax is 70 to 90% in experiment [1] and 70 to 90% in experiment [2] (CHO-K1, CHO-K1 cells).
For `CC(C)(C)NC[C@H](O)c1cc(C(F)F)cc2[nH]ncc12` [I-123], the EC50 was over 1000 nM in experiment [1] and 100 to 1000 nM in experiment [2] (CHO-K1 cells). The Emax in experiment [1] lay in the range of 70 to 90%; in experiment [2] (CHO-K1, CHO-K1 cells), 70 to 90%.
For `CC(C)CNC[C@H](O)c1ccc2[nH]cc(F)c2c1` [I-124], the EC50 was over 1000 nM in experiment [1] and 100 to 1000 nM in experiment [2] (CHO-K1 cells). Also, the Emax in experiment [1] is 70 to 90%; in experiment [2] (CHO-K1, CHO-K1 cells) it was over 90%.
As to `CC(C)(C)NC[C@H](O)c1cccc2[nH]nc(C3CC3)c12` [I-125], in experiment [1], the EC50 was 100 to 1000 nM and the Emax was 70 to 90%. Besides, in experiment [2] (CHO-K1 cells), the EC50 is 100 to 1000 nM and the Emax lay within 70 to 90%.
Take `CC1(NC[C@H](O)c2cccc3[nH]nc(F)c23)CC1` [I-126]: the EC50 in experiment [1] and in experiment [2] (CHO-K1 cells) was under 10 nM throughout. Moreover, the Emax in experiment [1] is 70 to 90%; in experiment [2] (CHO-K1, CHO-K1 cells) it was over 90%.
As for `O[C@@H](CNC1CCC1)c1cccc2[nH]ncc12` [I-127], the EC50 in experiment [1] and in experiment [2] (CHO-K1 cells) was under 10 nM throughout. The Emax in experiment [1] was over 90%; in experiment [2] (CHO-K1, CHO-K1 cells), over 90%.
Take `CC1(NC[C@H](O)c2cccc3[nH]ncc23)CCC1` [I-128]: in experiment [1], the EC50 was under 10 nM and the Emax was over 90%. Further, in experiment [2] (CHO-K1 cells), the EC50 was under 10 nM and the Emax was over 90%.
In the case of `CC1(NC[C@H](O)c2cccc3[nH]ncc23)CC1` [I-129], in experiment [1], the EC50 was under 10 nM and the Emax was over 90%. Besides, in experiment [2] (CHO-K1 cells), the EC50 was under 10 nM and the Emax is over 90%.
`CC1(NC[C@H](O)c2cccc3[nH]nc(F)c23)CCC1` [I-130]: in experiment [1], the EC50 was under 10 nM and the Emax was over 90%. Moreover, in experiment [2] (CHO-K1 cells), the EC50 was under 10 nM and the Emax was over 90%.
`CC(C)(C)NC[C@H](O)c1cc(F)cc2[nH]cnc12` [I-131]: the EC50 in experiment [1] and in experiment [2] (CHO-K1 cells) was 10 to 100 nM in each case. The Emax in experiment [1] is over 90%; in experiment [2] (CHO-K1, CHO-K1 cells), 70 to 90%.
Regarding `CC(C)(CO)NC[C@H](O)c1cccc2[nH]nc(F)c12` [I-132], the EC50 in experiment [1] and in experiment [2] (CHO-K1 cells) was under 10 nM throughout. Further, the maximum response (Emax) in experiment [1] was over 90%; in experiment [2] (CHO-K1, CHO-K1 cells), over 90%.
Consider `CC(C)CNC[C@H](O)c1cccc2[nH]ncc12` [I-133], for which the EC50 in experiment [1] is 10 to 100 nM; in experiment [2] (CHO-K1 cells), under 10 nM. Besides, the Emax is 70 to 90% in experiment [1] and over 90% in experiment [2] (CHO-K1, CHO-K1 cells).
With `O[C@@H](CNC1CC1)c1cccc2[nH]ncc12` [I-134], in experiment [1], the EC50 was under 10 nM and the Emax was 70 to 90%. For the same molecule, in experiment [2] (CHO-K1 cells), the EC50 is under 10 nM and the Emax was over 90%.
`Cc1cc([C@@H](O)CNC2CC2)c2cn[nH]c2c1` [I-135]: in experiment [1], the EC50 is under 10 nM and the Emax lay in the range of 70 to 90%. Also, in experiment [2] (CHO-K1 cells), the EC50 was under 10 nM and the maximum response (Emax) was in the range of 70 to 90%.
With `Cc1cc([C@@H](O)CNC2CCC2)c2cn[nH]c2c1` [I-136], the EC50 in experiment [1] and in experiment [2] (CHO-K1 cells) was under 10 nM throughout. The Emax in experiment [1] is over 90%; in experiment [2] (CHO-K1, CHO-K1 cells), over 90%.
Take `O[C@@H](CNC1CCC1)c1ccc(F)c2[nH]ncc12` [I-137]: in experiment [1], the EC50 was under 10 nM and the Emax fell in the range of 70 to 90%. Moreover, in experiment [2] (CHO-K1 cells), the EC50 is under 10 nM and the Emax is over 90%.
For `CC(C)CNC[C@H](O)c1cccc2[nH]nc(F)c12` [I-138], in experiment [1], the EC50 was 10 to 100 nM and the Emax fell in the range of 70 to 90%. Besides, in experiment [2] (CHO-K1 cells), the EC50 is under 10 nM and the Emax is over 90%.
As to `CC(C)NC[C@H](O)c1cccc2[nH]nc(F)c12` [I-139], the EC50 in experiment [1] and in experiment [2] (CHO-K1 cells) was under 10 nM in each case. Also, the Emax in experiment [1] and in experiment [2] (CHO-K1 cells) was over 90% in each case.
In the case of `O[C@@H](CNC1CC1)c1cccc2[nH]nc(F)c12` [I-140], in experiment [1], the EC50 was under 10 nM and the Emax was over 90%. Moreover, in experiment [2] (CHO-K1 cells), the EC50 was under 10 nM and the Emax is over 90%.
Consider `CC(C)(C)NC[C@@H](O)c1ccc(N)nn1` [I-141], for which the values for the EC50 in experiment [1] and in experiment [2] (CHO-K1 cells) were over 1000 nM and 100 to 1000 nM, respectively. In addition, the Emax is over 90% in experiment [1] and over 90% in experiment [2] (CHO-K1, CHO-K1 cells).
As to `CC(C)(C)NC[C@H](O)c1ccc(N)nn1` [I-142], the EC50 in experiment [1] and in experiment [2] (CHO-K1 cells) was 10 to 100 nM in each case. In addition, the Emax was over 90% in experiment [1] and over 90% in experiment [2] (CHO-K1, CHO-K1 cells).
As for `CC(C)(C)NC[C@@H](O)c1cccc(Br)n1` [I-143], the EC50 in experiment [1] is 100 to 1000 nM; in experiment [2] (CHO-K1 cells) it was over 1000 nM. Moreover, the Emax in experiment [1] was in the range of 70 to 90%; in experiment [2] (CHO-K1, CHO-K1 cells), 50 to 70%.
The like results for `Cc1nc(N)ncc1[C@@H](O)CNC(C)(C)C` [I-144] were, in that order, over 1000 nM, 10 to 100 nM, 70 to 90% and over 90%.
Turning to `Cc1nc(N)c(Cl)cc1[C@@H](O)CNC(CO)CO` [I-145], the EC50 in experiment [1] and in experiment [2] (CHO-K1 cells) was over 1000 nM in each case. Further, the Emax in experiment [1] and in experiment [2] (CHO-K1 cells) was 70 to 90% in each case.
Consider `Cc1nc(N)c(Cl)cc1[C@@H](O)CNC1COC1` [I-146], for which, in experiment [1], the EC50 was over 1000 nM and the Emax is under 50%. Moreover, in experiment [2] (CHO-K1 cells), the EC50 was over 1000 nM and the Emax is over 90%.
For `CC(C)(C)NC[C@H](O)c1cccc2[nH]c(=O)sc12` [I-147], in experiment [1], the EC50 was under 10 nM and the maximal response (Emax) is 70 to 90%. In experiment [2] (CHO-K1 cells), the EC50 was under 10 nM and the Emax is over 90%.
For `CC1(N[C@H](CO)c2cncc3[nH]ncc23)CC1` [I-148], the EC50 in experiment [1] and in experiment [2] (CHO-K1 cells) was over 1000 nM throughout. The Emax in experiment [1] and in experiment [2] (CHO-K1 cells) was 70 to 90% in each case.
For the molecule `CC1(N[C@@H](CO)c2cncc3[nH]ncc23)CC1` [I-149], the EC50 in experiment [1] and in experiment [2] (CHO-K1 cells) was over 1000 nM throughout. The Emax in experiment [1] is under 50%; in experiment [2] (CHO-K1 cells) it was 70 to 90%.
`Cc1nc(N)ccc1[C@@H](O)CNC(C)(C)C` [I-150]: the EC50 in experiment [1] was 10 to 100 nM; in experiment [2] (CHO-K1 cells), under 10 nM. Also, the Emax was over 90% in experiment [1] and over 90% in experiment [2] (CHO-K1, CHO-K1 cells).
Turning to `CC(C)(CO)NC[C@H](O)c1cc(C#N)cc2[nH]ncc12` [I-151], the EC50 in experiment [1] and in experiment [2] (CHO-K1 cells) was 100 to 1000 nM each time. Moreover, the Emax in experiment [1] is 70 to 90%; in experiment [2] (CHO-K1, CHO-K1 cells), over 90%.
For the molecule `N#Cc1cc([C@@H](O)CNC2CCC2)c2cn[nH]c2c1` [I-152], in experiment [1], the EC50 is 10 to 100 nM and the maximum response (Emax) lay in the range of 70 to 90%. Also, in experiment [2] (CHO-K1 cells), the EC50 was 10 to 100 nM and the maximal response (Emax) was over 90%.
For `N#Cc1cc([C@@H](O)CNC2CC2)c2cn[nH]c2c1` [I-153], the EC50 in experiment [1] and in experiment [2] (CHO-K1 cells) was 100 to 1000 nM throughout. Also, the Emax in experiment [1] is 70 to 90%; in experiment [2] (CHO-K1 cells), over 90%.
Consider `Cc1nc(N)ccc1[C@@H](O)CNC1(C)CCC1` [I-154], for which the results for the EC50 in experiment [1] and in experiment [2] (CHO-K1 cells) were 100 to 1000 nM and under 10 nM, respectively. Also, the Emax in experiment [1] was over 90%; in experiment [2] (CHO-K1, CHO-K1 cells) it was over 90%.
With `CC1(NC[C@H](O)c2cc(C#N)cc3[nH]ncc23)CC1` [I-155], the EC50 was 100 to 1000 nM in experiment [1] and 10 to 100 nM in experiment [2] (CHO-K1 cells). For the same molecule, the Emax in experiment [1] is 70 to 90%; in experiment [2] (CHO-K1, CHO-K1 cells), over 90%.
